Laboratory results published in PMC9964117, “Inhibitors against Two PDZ Domains of MDA-9 Suppressed Migration of Breast Cancer Cells” (International Journal of Molecular Sciences, 2023).
Where a chain is given by its changes, count along the chain named. Read-outs that look alike come from different tables or passages of the source.

Assays:
brain-tumor-bearing mice = tested on: brain-tumor-bearing mice; parameters: method as in PMID 28011764; details: cited from earlier work
MDA-9 PDZ1 domain [1] = molecular target: T1, MDA-9 PDZ1 domain (Homo sapiens, UniProt O00560); parameters: method as in PMID 28011764; details: read-out: Affinity for MDA-9 PDZ1 domain; cited from earlier work
T1 construct: the N-terminal (1–109aa), PDZ1 (110–193aa), PDZ2 (194–274aa); made in house
T1 sequence (O00560 110-193): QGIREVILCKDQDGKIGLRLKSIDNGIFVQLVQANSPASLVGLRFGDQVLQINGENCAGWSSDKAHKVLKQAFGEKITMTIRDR

[2] = tested on: prostate cancer or neuroblastoma; parameters: method as in PMID 31406249, PMID 31345950; details: cited from earlier work
glioma cells = tested on: glioma cells; parameters: method as in PMID 28011764; details: cited from earlier work
MDA-9 PDZ2 domain [3] = molecular target: T2, MDA-9 PDZ2 domain (Homo sapiens, UniProt O00560); details: cited from earlier work
T2 construct: PDZ1 (110–193aa), PDZ2 (194–274aa), and the C-terminal (275–298aa); made in house
T2 sequence (O00560 194-274): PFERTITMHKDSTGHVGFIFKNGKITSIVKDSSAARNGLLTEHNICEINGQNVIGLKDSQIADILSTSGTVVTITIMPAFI

MDA-MB-231 cells [4] = experiment: Wound-healing assay; type: cell-based; details: 100 μM each compound, 0 and 24 h, relative to DMSO
Protocol: MDA-MB-231 cells were spread in 6-well plate culture dishes, where sh-MDA-9 cells were used as a positive control. DMSO (control), PI1A 100 μM, PI2A 100 μM, and both PI1A and PI2A 100 μM were added to the MDA-MB-231 cells, respectively. On newly grown monolayer cells, […] of the tip was used to line the central area of cell growth. Next, excess cells were washed away with PBS buffer. The cells were then cultured for the experimentally-determined period of time (0 h or 24 h). Lastly, the cell culture plates were removed separately and the peripheral cells were observed under a microscope to determine whether they had migrated to the scratched area.

MDA-9 PDZ1 domain [5] = molecular target: T1, MDA-9 PDZ1 domain; experiment: Competitive fluorescence polarization with FITC-peptide; details: 80 μM PDZ1, 500 nM FITC-peptide; read-out: Binding affinity to PDZ1 from competitive FP
Protocol: (§1) For competitive FP experiments with the FITC-peptide, the PDZ1 domain concentration was set at 80 μM and the PDZ2 domain concentration at 250 μM. After that, each aliquot of the 200 μL sample contained 500 nM of the FITC-peptide, 80 μM of the PDZ1 or 250 μM of the PDZ2 domain, as well as different concentrations of PI1A or PI2A. A concentration range of 0–200 μM was administered for PI1A while a concentration range of 0–600 μM was administered for PI2A. Samples were repeated 3 times for each experimental group. The dissociation constants for the interactions between ligands and proteins were derived from the complete competitive FP equation proposed by Gerhard Wagner et al. (Biochemistry 2004). […]

[6] = molecular target: T3, MTSL-labeled C118/C166S mutant of MDA-9 PDZ1 domain (Homo sapiens, UniProt O00560, C166S); experiment: NMR CSP titration against MTSL-labeled mutant; details: dose-dependent CSP, read-out: Binding affinity to MTSL-labeled C118/C166S mutant of PDZ1
T3 construct: the N-terminal (1–109aa), PDZ1 (110–193aa), PDZ2 (194–274aa); made in house
T3 sequence (O00560 110-193 C166S): T1 sequence (O00560 110-193) with C57S
Protocol: (§2) The ^15N-labelled PDZ1 and PDZ2 domains of MDA-9 were concentrated in the HEPES buffer (20 mM HEPES, 100 mM NaCl, 1 mM EDTA, 1 mM DTT, pH 7.0) to 0.05 mmol/L. The screening fragment compounds were then titrated to these ^15N-labeled MDA-9 PDZ1 or PDZ2 domain, respectively. Each HSQC profile was collected (at molar ratios of 0.0, 2.0, 4.0, 8.0, 16.0, and 32.0 at 25 °C) using an Agilent 700 MHz spectrometer. NMR spectra were analyzed using Sparky. The chemical shift changes (Δδ), relative to the free form of the PDZ1 or PDZ2 domain, were calculated as follows:(1) Δδ=(∆δH^1)^2+(0.2ΔδN^15)^2 where ∆δH^1 and ΔδN^15 denote the chemical shift changes of ^1H and ^15N, respectively.
(§3) According to this equation, the binding constants can be best fitted with a binding mode of 1:1: Δδobs=Δδmax([P]t+[L]t+Kd)−([P]t+[L]t+Kd)^2−4[P]t[L]t/2[P]t where [P]t and [L]t represent the concentrations of the protein and ligand, respectively. Δδobs represents the observed chemical shift changes, relative to the free-state protein.
(§4) The ^15N-labeled PDZ1 C118/C166S mutant and the PDZ2 C239S/D256C mutant were expressed by the method described above. After the dilution of the protein solution to 0.5 mg/mL with a 1-fold excess of Tris(2-carboxyethyl) phosphine (TCEP), the solution was incubated for 2 h at room temperature. […] WATERGATE spectra with T2 delays of 0.04 and 0.8 s were recorded. […]

MDA-MB-231 cells [7] = experiment: CCK8 cell viability assay; type: cell-based; details: 48 h treatment
Protocol: The MDA-MB-231 cells were obtained by a gift. CCK8 assay was used to assess the effects of PI1A or PI2A on the viability of MDA-MB-231 cells. Cells were placed in 96-well plates and treated with different concentrations of DMSO, PI1A, or PI2A for 48 h. Then, 10 μL of CCK8 solution was added to the wells. The 96-well plates were incubated in a CO2 incubator at 37 °C for another 1 h. OD values were measured at 450 nm using a CLARIOstar (BMG LABTECH) plate reader.

MDA-9 PDZ2 domain [8] = molecular target: T2, MDA-9 PDZ2 domain; experiment: NMR chemical shift perturbation titration (1H-15N HSQC); type: binding
Protocol: (§5) NMR fragment-based screening was performed at 25 °C using an Agilent 700 MHZ spectrometer equipped with a 96-well autosampler (Agilent Technologies, Santa Clara, CA, USA). ^1H-^15N HSQC spectra were acquired from the ^15N-labeled MDA-9 PDZ1 and PDZ2 domains (0.05 mM). A fragment library of 890 compounds (Chembridge, SanDiego, CA, USA) and an approved drug library of 540 compounds (TargetMol, Boston, MA, USA) were pooled into cocktails, respectively, and each cocktail contained 10 compounds at 0.2 mM [39, 40]. The ^1H-^15N HSQC spectra were measured on an Agilent 700 MHz spectrometer at ligand/protein molar ratios ranging from 0.0 to 4.0.
as §2, with “^15N, respectively. […]” for “^15N, respectively.”

MDA-9 PDZ1 domain [9] = molecular target: T1, MDA-9 PDZ1 domain; experiment: as above; details: 25 °C, pH 7.0, read-out: Binding affinity (Kd) to MDA-9 PDZ1 domain from dose-dependent CSPs
Protocol: as §5
as §2, with “^15N, respectively. […]” for “^15N, respectively.”

[10] = molecular target: T4, H208A mutant of MDA-9 PDZ2 domain (Homo sapiens, UniProt O00560, H208A); experiment: NMR CSP titration against mutant; type: binding
T4 construct: PDZ1 (110–193aa), PDZ2 (194–274aa), and the C-terminal (275–298aa); made in house
T4 sequence (O00560 194-274 H208A): T2 sequence (O00560 194-274) with H15A
Protocol: as §2, §3

[11] = molecular target: T5, A255V mutant of MDA-9 PDZ2 domain (Homo sapiens, UniProt O00560, A255V); experiment: NMR CSP titration against mutant; type: binding
T5 construct: PDZ1 (110–193aa), PDZ2 (194–274aa), and the C-terminal (275–298aa); made in house
T5 sequence (O00560 194-274 A255V): T2 sequence (O00560 194-274) with A62V
Protocol: as §2, §3

[12] = molecular target: T6, V209I mutant of MDA-9 PDZ2 domain (Homo sapiens, UniProt O00560, V209I); experiment: NMR CSP titration against mutant; type: binding
T6 construct: PDZ1 (110–193aa), PDZ2 (194–274aa), and the C-terminal (275–298aa); made in house
T6 sequence (O00560 194-274 V209I): T2 sequence (O00560 194-274) with V16I
Protocol: as §2, §3

[13] = molecular target: T7, V209A mutant of MDA-9 PDZ2 domain (Homo sapiens, UniProt O00560, V209A); experiment: NMR CSP titration against mutant; type: binding; details: relative to wild type
T7 construct: PDZ1 (110–193aa), PDZ2 (194–274aa), and the C-terminal (275–298aa); made in house
T7 sequence (O00560 194-274 V209A): T2 sequence (O00560 194-274) with V16A
Protocol: as §2, §3

[14] = molecular target: T8, G210A mutant of MDA-9 PDZ2 domain (Homo sapiens, UniProt O00560, G210A); experiment: NMR CSP titration against mutant; type: binding; details: relative to wild type
T8 construct: PDZ1 (110–193aa), PDZ2 (194–274aa), and the C-terminal (275–298aa); made in house
T8 sequence (O00560 194-274 G210A): T2 sequence (O00560 194-274) with G17A
Protocol: as §2, §3

MDA-9 PDZ2 domain [15] = molecular target: T2, MDA-9 PDZ2 domain; experiment: Competitive fluorescence polarization with FITC-peptide; details: 250 μM PDZ2, 500 nM FITC-peptide; read-out: Binding affinity to PDZ2 from competitive FP
Protocol: as §1

[16] = molecular target: T9, MTSL-labeled C239S/D256C mutant of MDA-9 PDZ2 domain (Homo sapiens, UniProt O00560, C239S/D256C); experiment: NMR CSP titration against MTSL-labeled mutant; type: binding; details: dose-dependent CSP
T9 construct: PDZ1 (110–193aa), PDZ2 (194–274aa), and the C-terminal (275–298aa); made in house
T9 sequence (O00560 194-274 C239S/D256C): T2 sequence (O00560 194-274) with C46S, D63C
Protocol: as §2, §3, §4

Cc1cc(NC(=O)c2nc3nc4c(c(=O)n3[nH]2)CCC4)c(C)cc1NC(=O)CCc1nnc(-c2ccccc2)o1 [PDZ1i]
Survival rate in brain-tumor-bearing mice (brain-tumor-bearing mice): improved survival rate
Kd (MDA-9 PDZ1 domain [1]): 21 µM
In vivo activity against prostate cancer or neuroblastoma [2]: exhibited in vivo activity
Invasion of glioma cells (glioma cells): inhibited the invasion
Binding to MDA-9 PDZ2 domain (in words) (MDA-9 PDZ2 domain [3]): did not bind significantly

Cc1cc(Nc2ccccc2C(=O)O)ccc1Cl [PI1A]
Migration of MDA-MB-231 cells (wound closure) (MDA-MB-231 cells [4]): suppressed the migration
Kd (MDA-9 PDZ1 domain [5]): 170 µM
Kd [6]: 250 µM
Toxicity / viability of MDA-MB-231 cells (CCK8) (MDA-MB-231 cells [7]): not toxic
Binding to MDA-9 PDZ2 domain (in words) (MDA-9 PDZ2 domain [8]): did not bind
Kd (MDA-9 PDZ1 domain [9]): 110 µM

O=C(O)c1cc(-c2ccc(F)cc2)n[nH]1 [PI2A]
Migration of MDA-MB-231 cells (wound closure) (MDA-MB-231 cells [4]): suppressed the migration
Binding to H208A mutant of PDZ2 (in words) [10]: incapable of binding
Kd [11]: > 5000 µM
Kd [12]: > 5000 µM
Binding affinity to V209A mutant of PDZ2 (in words) [13]: reduced binding affinities
Binding affinity to G210A mutant of PDZ2 (in words) [14]: reduced binding affinities
Kd (MDA-9 PDZ2 domain [15]): 510 µM
Effect of MTSL labeling of C239S/D256C PDZ2 mutant on inhibitor binding affinity (in words) [16]: did not disrupt
Toxicity / viability of MDA-MB-231 cells (CCK8) (MDA-MB-231 cells [7]): not toxic
Kd (MDA-9 PDZ2 domain [8]; 25 °C, pH 7.0, read-out: Binding affinity (Kd) to MDA-9 PDZ2 domain by NMR titration): 500 µM
Kd (MDA-9 PDZ1 domain [9]): > 1000 µM
